Results from patent US12171756B2, “NLRP3 modulators” (Innate Tumor Immunity, Inc., priority 2017, dated 2024).

Columns and labels:
[1] = target: T1, human TLR7 (Homo sapiens, UniProt Q9NYK1); assay: In vitro human TLR7 binding reporter assay (HEK-Blue, NF-kB/AP1-inducible SEAP); format: cell-based; settings: HEK-Blue human TLR7 SEAP reporter cells; activity range classes; read-out: TLR7 Agonist EC50
T1 construct: host or cells: human HEK-Blue cells (HEK293-derived) co-expressing TLR7 and an NF-kB/AP1-inducible SEAP reporter
T1 sequence (Q9NYK1 27-1049): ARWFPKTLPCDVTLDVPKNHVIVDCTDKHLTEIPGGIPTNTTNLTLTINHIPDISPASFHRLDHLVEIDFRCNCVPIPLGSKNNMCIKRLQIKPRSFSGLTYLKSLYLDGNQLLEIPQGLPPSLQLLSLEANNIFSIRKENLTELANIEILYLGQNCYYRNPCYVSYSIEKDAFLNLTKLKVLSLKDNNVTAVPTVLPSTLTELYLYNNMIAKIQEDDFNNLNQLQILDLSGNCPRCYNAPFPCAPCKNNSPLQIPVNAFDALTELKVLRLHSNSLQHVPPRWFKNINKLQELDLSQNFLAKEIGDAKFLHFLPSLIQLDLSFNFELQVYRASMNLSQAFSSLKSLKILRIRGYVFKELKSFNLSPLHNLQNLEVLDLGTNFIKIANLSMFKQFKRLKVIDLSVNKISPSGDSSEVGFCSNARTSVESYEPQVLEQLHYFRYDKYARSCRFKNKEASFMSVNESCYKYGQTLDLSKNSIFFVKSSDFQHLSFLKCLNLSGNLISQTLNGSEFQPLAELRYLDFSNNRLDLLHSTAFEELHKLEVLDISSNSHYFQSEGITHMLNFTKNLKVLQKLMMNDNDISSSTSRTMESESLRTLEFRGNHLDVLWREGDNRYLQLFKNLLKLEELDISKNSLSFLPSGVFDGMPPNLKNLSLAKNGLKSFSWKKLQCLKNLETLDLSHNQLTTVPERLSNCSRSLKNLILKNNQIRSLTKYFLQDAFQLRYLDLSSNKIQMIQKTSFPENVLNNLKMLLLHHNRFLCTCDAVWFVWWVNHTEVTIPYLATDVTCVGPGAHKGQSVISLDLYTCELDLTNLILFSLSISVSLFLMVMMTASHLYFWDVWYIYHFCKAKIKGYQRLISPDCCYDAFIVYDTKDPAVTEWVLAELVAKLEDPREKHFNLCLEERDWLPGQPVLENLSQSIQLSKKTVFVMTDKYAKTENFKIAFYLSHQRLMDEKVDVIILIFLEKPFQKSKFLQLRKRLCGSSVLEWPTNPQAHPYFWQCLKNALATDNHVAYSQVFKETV
Protocol: (§1) In Vitro Human TLR7 and TLR8 Binding Reporter Assays
(§2) Logarithmically-growing human HEK-Blue cells co-expressing a TLR7 or TLR8 gene and a NF-kB/AP1-inducible SEAP (secreted embryonic alkaline phosphatase; Invivogen, San Diego, CA) reporter gene are added to individual wells of a 384-well plate (15,000 cells per 20 μL per well) and maintained for 24 h at 37° C., 5% CO2. Test compounds or DMSO are distributed to separate wells the next day using acoustic liquid handling technology (100 nL per well) and cells are subsequently incubated for 18 h at 37° C., 5% CO2. Cellular SEAP production is measured using an Envision plate reader instrument thirty minutes after adding freshly-made Quanti-Blue reagent (prepared by following manufacturer instructions; Invivogen, San Diego, CA) to the HEK-Blue TLR Nf-kB-SEAP cell reactions. All EC50 values (half-maximal effective concentration) are determined using proprietary data analysis software. Normalized EC50 value=absolute value determined by setting 100% Ymax using a reference standard RLU (relative light unit) values from cells treated with 50 μM of the reference standard.

[2] = test system: IL-1β production in PMA-differentiated THP-1 cells; assay: Measurement of IL-1β production in PMA-differentiated THP-1 cells (ELISA, 4 hours); format: cell-based, human; settings: Homo sapiens, THP-1, human IL-1β production, assayed using one or more of the described procedures, read-out: NLRP3 hIL1B IC50
Protocol: Measurement of IL-1β Production in PMA-Differentiated THP-1 Cells THP-1 cells were purchased from the American Type Culture Collection and sub-cultured according to instructions from the supplier. Prior to experiments, cells were cultured in RPMI 1640 containing 10% heat inactivated FBS, penicillin (100 units/ml) and streptomycin (100 μg/ml), and maintained in log phase prior to experimental setup. Prior to the experiment THP-1 were treated with PMA (Phorbol 12-myristate 13-acetate) (10 μg/ml) for 24 hours. The day of the experiment the media was removed and attaching cells were treated with trypsin for 2 minutes, cells were then collected, washed with PBS (phosphate buffer saline), spin down, resuspended in 2% heat inactivated FBS with RPMI at a concentration of 1×10^6 cells/ml, and 100 μl was plated in a 96 well plate. Compounds were dissolved in dimethyl sulfoxide (DMSO) and added to the culture medium to achieve desired concentration (e.g. 100, 30, 10, 3, 1, 0.3 or 0.1 μM). Cells were incubated with compounds for 4 hours. Cell free supernatant was collected and the production of IL-1β was evaluated by ELISA. A vehicle only control was run concurrently with each experiment. Final DMSO concentration was 1%.

[3] = target: T2, human TLR8 (Homo sapiens, UniProt Q9NR97); assay: In vitro human TLR8 binding reporter assay (HEK-Blue, NF-kB/AP1-inducible SEAP); format: cell-based; settings: HEK-Blue human TLR8 SEAP reporter cells; activity range classes; read-out: TLR8 Agonist EC50
T2 construct: host or cells: human HEK-Blue cells (HEK293-derived) co-expressing TLR8 and an NF-kB/AP1-inducible SEAP reporter
T2 sequence (Q9NR97 27-1041): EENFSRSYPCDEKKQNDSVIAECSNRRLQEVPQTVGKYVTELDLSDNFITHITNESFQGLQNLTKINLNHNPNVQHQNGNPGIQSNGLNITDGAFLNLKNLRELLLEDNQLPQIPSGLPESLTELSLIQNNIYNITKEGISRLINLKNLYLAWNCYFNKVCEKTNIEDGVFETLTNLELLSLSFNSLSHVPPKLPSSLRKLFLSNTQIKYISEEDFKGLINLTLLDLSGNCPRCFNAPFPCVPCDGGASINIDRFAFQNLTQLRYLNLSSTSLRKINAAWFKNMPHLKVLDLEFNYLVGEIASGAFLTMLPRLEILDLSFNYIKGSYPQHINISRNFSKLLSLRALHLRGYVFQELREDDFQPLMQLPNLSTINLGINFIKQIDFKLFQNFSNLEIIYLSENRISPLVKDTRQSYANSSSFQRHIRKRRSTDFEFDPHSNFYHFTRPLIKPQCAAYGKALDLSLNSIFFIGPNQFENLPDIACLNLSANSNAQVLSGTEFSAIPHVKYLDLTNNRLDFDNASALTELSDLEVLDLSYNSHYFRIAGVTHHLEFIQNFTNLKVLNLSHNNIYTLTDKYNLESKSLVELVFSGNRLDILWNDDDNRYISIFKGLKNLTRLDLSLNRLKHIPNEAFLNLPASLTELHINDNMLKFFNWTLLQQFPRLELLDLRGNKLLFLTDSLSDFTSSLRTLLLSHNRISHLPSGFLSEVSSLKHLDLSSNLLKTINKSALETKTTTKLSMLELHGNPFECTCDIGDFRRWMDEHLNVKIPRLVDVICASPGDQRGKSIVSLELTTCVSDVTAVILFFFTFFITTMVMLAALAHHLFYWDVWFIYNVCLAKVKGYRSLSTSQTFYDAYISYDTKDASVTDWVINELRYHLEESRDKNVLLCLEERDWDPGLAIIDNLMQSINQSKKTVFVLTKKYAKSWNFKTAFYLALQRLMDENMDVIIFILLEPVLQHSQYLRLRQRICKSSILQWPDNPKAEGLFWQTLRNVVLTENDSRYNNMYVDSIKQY
Protocol: as §1, §2

Row | EC50 [1] [µM] | IC50 [2] [µM] | EC50 [3] [µM] | SMILES
1 | > 100 | 2.56 | > 100 | CCN(CCCc1cc2ccc(-c3cc[nH]n3)cc2nc1N)C(C)=O [Compound 112, N-[3-[2-amino-7-(1H-pyrazol-3-yl)quinolin-3-yl]propyl]-N-ethylacetamide]
2 | > 100 | 11.9 | > 100 | COCc1cc2ccc(-c3ccn[nH]3)cc2nc1N [Compound 113, 3-(methoxymethyl)-7-(1H-pyrazol-5-yl)quinolin-2-amine]
3 | > 100 | 4.25 | > 100 | Nc1nc2cc(-c3ccn[nH]3)ccc2cc1CCCN1CCCCC1 [Compound 114]
4 | > 100 | 3.04 | > 100 | Nc1nc2cc(-c3ccn[nH]3)ccc2cc1CN1CCOCC1 [Compound 115]
5 | > 100 | 4.07 | > 100 | Nc1nc2cc(-c3ccn[nH]3)ccc2cc1C1CCOCC1 [Compound 116]
6 | > 100 | 1.73 | > 100 | CN(C)C1CCN(Cc2cc3ccc(-c4ccn[nH]4)cc3nc2N)CC1 [Compound 118]
7 | > 100 | 3.07 | 20 to 100 | Nc1nc2cc(-c3ccn[nH]3)ccc2cc1CN1CCCC1=O [Compound 119]
8 | > 100 | 14.5 | > 100 | Nc1nc2cc(-c3ccn[nH]3)ccc2cc1C(=O)Nc1cccnc1 [Compound 124]
9 | > 100 | 1.15 | > 100 | Nc1nc2cc(-c3ccn[nH]3)ccc2cc1-c1ccc2[nH]ncc2c1 [Compound 127]
10 | > 100 | 0.1 | > 100 | Nc1cc(NCc2cc[nH]n2)c2ccc(-c3ccn[nH]3)cc2n1 [Compound 128, N4-((1H-pyrazol-3-yl)methyl)-7-(1H-pyrazol-5-yl)quinoline-2,4-diamine]
11 | > 100 | 2.29 | > 100 | COc1cccc(C(C)Nc2cc(N)nc3cc(-c4ccn[nH]4)ccc23)n1 (stereo not drawn) [Compound 129, N4-(1-(6-methoxypyridin-2-yl)ethyl)-7-(1H-pyrazol-5-yl)quinoline-2,4-diamine]
12 | > 100 | 0.85 | > 100 | Nc1cc(N2CCOCC2)c2ccc(-c3ccn[nH]3)cc2n1 [Compound 131]
13 | > 100 | 0.3 | > 100 | C[C@@H](O)CNc1cc(N)nc2cc(-c3ccn[nH]3)ccc12 [Compound 133]
14 | > 100 | 0.29 | > 100 | C[C@H](O)CNc1cc(N)nc2cc(-c3ccn[nH]3)ccc12 [Compound 134]
15 | > 100 | 0.12 | > 100 | Nc1cc(NCc2ccccn2)c2ccc(-c3ccn[nH]3)cc2n1 [Compound 135]
16 | > 100 | 3.02 | > 100 | CN(CCO)c1cc(N)nc2cc(-c3ccn[nH]3)ccc12 [Compound 136]
17 | > 100 | 0.55 | > 100 | Nc1cc(NCC2CCOCC2)c2ccc(-c3ccn[nH]3)cc2n1 [Compound 137]
18 | 1 to 20 | 5.95 | > 100 | CN(C)C(=O)CCNc1cc(N)nc2cc(-c3ccn[nH]3)ccc12 [Compound 138]
19 | > 100 | 2.01 | > 100 | CNC(=O)CCNc1cc(N)nc2cc(-c3ccn[nH]3)ccc12 [Compound 139]
20 | > 100 | 1.41 | > 100 | CS(=O)(=O)CCNc1cc(N)nc2cc(-c3ccn[nH]3)ccc12 [Compound 140]
21 | > 100 | 1.43 | > 100 | Nc1cc(N2CC[C@H](O)C2)c2ccc(-c3ccn[nH]3)cc2n1 [Compound 142]
22 | > 100 | 5.81 | > 100 | Nc1cc(N2CC[C@@H](O)C2)c2ccc(-c3ccn[nH]3)cc2n1 [Compound 143]
23 | > 100 | 0.48 | > 100 | Nc1cc(NCCCCO)c2ccc(-c3ccn[nH]3)cc2n1 [Compound 144]
24 | > 100 | 2.55 | > 100 | Nc1cc(N2CCC(O)CC2)c2ccc(-c3ccn[nH]3)cc2n1 [Compound 145]
25 | > 100 | 4.07 | > 100 | Nc1cc(NCCNC(=O)c2ccccc2)c2ccc(-c3ccn[nH]3)cc2n1 [Compound 146]
26 | > 100 | 0.99 | > 100 | Nc1cc(NCC2(O)CC2)c2ccc(-c3ccn[nH]3)cc2n1 [Compound 147]
27 | > 100 | 1.64 | > 100 | Nc1cc(NCc2ccncc2)c2ccc(-c3ccn[nH]3)cc2n1 [Compound 148]
28 | > 100 | 0.14 | > 100 | Nc1cc(NCc2cccnn2)c2ccc(-c3ccn[nH]3)cc2n1 [Compound 149]
29 | > 100 | 0.22 | > 100 | Nc1cc(NCc2cccnc2)c2ccc(-c3ccn[nH]3)cc2n1 [Compound 150]
